From patent publication US9271960B2, “Tetrahydrocarbazoles as active agents for inhibiting VEGF production by translational control” (PTC Therapeutics, Inc., priority 2004, dated 2016) come the findings set out here.

SMILES strings stand for the structures. Where two headings read alike, the source gives them in different places. Where only a bound is given, the exact number is not on record here.

For this assay, the system named is VEGF. Kind of assay: Hypoxia-inducible endogenous VEGF expression ELISA in HeLa cells. The assay is classed as cell-based. The following applies: Homo sapiens, VEGF protein by ELISA. Summed up: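 HeLa cells held 24–48 h in hypoxia (1% O2) with a concentration series of compound; VEGF secreted into media quantified by ELISA against a standard curve. Parallel Cell Titer Glo viability under identical conditions gives CC50; EC50 from percent-inhibition curves.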
(In general: ELISA stands for enzyme-linked immunosorbent assay.)

The mark [1] stands for this setting: HeLa, compounds 1-155, hypoxic conditions (1% O2), read-out: ELISA Activity.
[2] abbreviates: HeLa, compounds 191-239, hypoxic conditions, read-out: ELISA Activity EC50.
Setting [3] is: HeLa, purchased compounds 156-188, hypoxic conditions, read-out: ELISA Activity.
Where [4] appears, read: HeLa, purchased compounds 156-188, hypoxic conditions, read-out: ELISA EC50.

In the case of `Clc1ccccc1NC1CCCc2c1[nH]c1ccc(Br)cc21` (centres unmarked) [Compound 29, (6-Bromo-2,3,4,9-tetrahydro-1H-carbazol-1-yl)-(2-chloro-phenyl)-amine], under setting [1], the EC50 is 10 to 40 nM.

With `Brc1ccc2[nH]c3c(c2c1)CCCC3c1ccc(OCCCN2CCSCC2)cc1` (centres unmarked) [Compound 206], the EC50 under setting [2] is less than 10 nM.

`O=C(NC1CCCc2c1[nH]c1ccc(Br)cc21)c1ccc(C(F)(F)F)cc1` (centres unmarked) [Compound 131, N-(6-Bromo-2,3,4,9-tetrahydro-1H-carbazol-1-yl)-4-trifluoromethyl-benzamide]: under setting [1], the EC50 is 10 to 40 nM.

Regarding `Brc1ccc2c3c([nH]c2c1)C(Nc1ccccc1)CCC3` (centres unmarked) [Compound 47, (7-Bromo-2,3,4,9-tetrahydro-1H-carbazol-1-yl)-phenyl-amine], the EC50 under setting [1] lay within 40 to 200 nM.

For `Cc1cc(C)cc(NC2CCCc3c2[nH]c2ccc(Br)cc32)c1` (centres unmarked) [Compound 23, (6-Bromo-2,3,4,9-tetrahydro-1H-carbazol-1-yl)-(3,5-dimethyl-phenyl)-amine], the EC50 under setting [1] lay in the range of 10 to 40 nM.

`COCCN(CCCOc1ccc(C2CCCc3c2[nH]c2ccc(Br)cc32)cc1)CCOC` (centres unmarked) [Compound 205]: under setting [2], the EC50 was in the range of 10 to 40 nM.

For `COc1ccc(NC2CCCc3c2[nH]c2ccc(C(F)(F)F)cc32)cc1` (centres unmarked) [Compound 139, (4-Methoxy-phenyl)-(6-trifluoromethyl-2,3,4,9-tetrahydro-1H-carbazol-1-yl)-amine], the EC50 under setting [1] fell in the range of 10 to 40 nM.

As for `O=C(NC1CCCc2c1[nH]c1ccc(Br)cc21)c1cc2ccccc2[nH]1` (centres unmarked) [Compound 127, 1H-lndole-2-carboxylic acid (6-bromo-2,3,4,9-tetrahydro-1H-carbazol-1-yl)-amide], the EC50 under setting [1] lay in the range of 40 to 200 nM.

Take `O/N=C1\CCCc2c1[nH]c1ccc(Cl)cc21` [Compound 93]: the EC50 under setting [1] is greater than 1000 nM.

With `O=C(Nc1ccccc1)C1CCCc2c1[nH]c1ccc(Br)cc21` (centres unmarked) [Compound 91, 6-Bromo-2,3,4,9-tetrahydro-1H-carbazole-1-carboxylic acid phenylamide], the EC50 under setting [1] is greater than 1000 nM.

`Clc1ccc2[nH]c3c(c2c1)CCCC3c1ccc(OCC2CO2)cc1` (centres unmarked) [Compound 224]: the EC50 under setting [2] is less than 10 nM.

Take `O=C(NC1CCCc2c1[nH]c1ccc(Br)cc21)Oc1ccccc1` (centres unmarked) [Compound 75, (6-Bromo-2,3,4,9-tetrahydro-1H-carbazol-1-yl)-carbamic acid phenyl ester]: the EC50 (compounds 1-155, hypoxic conditions (1% O2), read-out: ELISA Activity) was greater than 1000 nM.

Take `CC(=O)NC1CCCc2c1[nH]c1ccc(C)cc21` (centres unmarked) [Compound 178, N-(6-Methyl-2,3,4,9-tetrahydro-1H-carbazol-1-yl)-acetamide]: the EC50 by setting is: under setting [3], greater than 1000 nM; under setting [4], greater than 10000 nM.

Regarding `Cc1nnc(C2CCCc3c2[nH]c2ccc(Br)cc32)o1` (centres unmarked) [Compound 100, 6-Bromo-1-(5-methyl-[1,3,4]oxadiazol-2-yl)-2,3,4,9-tetrahydro-1H-carbazole], under setting [1], the EC50 was greater than 1000 nM.

`Brc1ccc2[nH]c3c(c2c1)CCCC3Nc1cnccn1` (centres unmarked) [Compound 31, (6-Bromo-2,3,4,9-tetrahydro-1H-carbazol-1-yl)-pyrazin-2-yl-amine]: the EC50 under setting [1] was 10 to 40 nM.

As to `CC(=O)SCCC(=O)N1CCn2c3c(c4cc(C)ccc42)CCCC31` (stereo not drawn) [Compound 182, Thioacetic acid S-[3-(8-methyl-1,2,3a,4,5,6-hexahydro-pyrazino[3,2,1-jk]carbazol-3-yl)-3-oxo-propyl] ester], the EC50 is greater than 1000 nM under setting [3] and greater than 10000 nM under setting [4].

Consider `COc1cccc(NC2CCCc3c2[nH]c2ccc(Br)cc32)c1` (centres unmarked) [Compound 10, (6-Bromo-2,3,4,9-tetrahydro-1H-carbazol-1-yl)-(3-methoxy-phenyl)-amine], for which the EC50 under setting [1] is less than 10 nM.

As for `CC(=O)N(Cc1ccccc1)C1CCCc2c1[nH]c1ccc(C)cc21` (centres unmarked) [Compound 174, N-Benzyl-N-(6-methyl-2,3,4,9-tetrahydro-1H-carbazol-1-yl)-acetamide], the EC50 runs as follows: under setting [3], greater than 1000 nM; under setting [4], greater than 10000 nM.

Turning to `C1=C(c2ccc3c(c2)c2c4n3CCN(Cc3ccccc3)C4CCC2)C2CCN1CC2` (centres unmarked) [Compound 166, 8-(1-Aza-bicyclo[2.2.2]oct-2-en-3-yl)-3-benzyl-2,3,3a,4,5,6-hexahydro-1H-pyrazino[3,2,1-jk]carbazole], the EC50 is, setting by setting: under setting [3], greater than 1000 nM; under setting [4], 6630 nM.

Consider `Cc1ccc(C)n1C1CCCc2c1[nH]c1ccc(Br)cc21` (centres unmarked) [Compound 70, 6-Bromo-1-(2,5-dimethylpyrrol-1-yl)-2,3,4,9-tetrahydro-1H-carbazole], for which the EC50 under setting [1] lay within 200 to 1000 nM.

For the compound `Brc1ccc2[nH]c3c(c2c1)CCCC3c1nnc(-c2ccccc2)o1` (centres unmarked) [Compound 111, 6-Bromo-1-(5-phenyl-[1,3,4]oxadiazol-2-yl)-2,3,4,9-tetrahydro-1H-carbazole], under setting [1], the EC50 is greater than 1000 nM.

For `CN1CCN(CC(O)COc2ccc(C3CCCc4c3[nH]c3ccc(Br)cc43)cc2)CC1` (centres unmarked) [Compound 201], the EC50 under setting [2] was 10 to 40 nM.

As for `CCCCNC1CCCc2c1[nH]c1ccc(Br)cc21` (centres unmarked) [Compound 72, (6-Bromo-2,3,4,9-tetrahydro-1H-carbazol-1-yl)-butyl-amine], under setting [1], the EC50 lay in the range of 200 to 1000 nM.

As to `Cc1ccc2[nH]c3c(c2c1)CCCC3Nc1ccccc1` (centres unmarked) [Compound 11, (6-Methyl-2,3,4,9-tetrahydro-1H-carbazol-1-yl)-phenyl-amine], the EC50 under setting [1] is less than 10 nM.

On to `O=C(NC1CCCc2c1[nH]c1ccc(Br)cc21)c1ccc(Cl)s1` (centres unmarked) [Compound 154, 5-Chloro-thiophene-2-carboxylic acid (6-bromo-2,3,4,9-tetrahydro-1H-carbazol-1-yl)-amide], for which the EC50 under setting [1] is less than 10 nM.

Turning to `COc1ccc2[nH]c3c(c2c1)CCCC3n1cccc1` (centres unmarked) [Compound 56, 6-Methoxy-1-pyrrol-1-yl-2,3,4,9-tetrahydro-1H-carbazole], the EC50 under setting [1] lay within 40 to 200 nM.

In the case of `Cc1ccc2c(c1)c1c3n2CCCNC3CCC1` (centres unmarked) [Compound 173, 11-Methyl-1,2,3,3a,4,5,6,7-octahydro-[1,4]diazepino[3,2,1-jk]carbazole], the EC50 runs as follows: under setting [3], greater than 1000 nM; under setting [4], greater than 10000 nM.

On to `Cn1c2c(c3cc(Br)ccc31)CCCC2n1cccc1` (centres unmarked) [Compound 117, 6-Bromo-9-methyl-1-pyrrol-1-yl-2,3,4,9-tetrahydro-1H-carbazole], for which, under setting [1], the EC50 was greater than 1000 nM.

`O=C(O)C1CCCc2c1[nH]c1ccc(Br)cc21` (centres unmarked) [Compound 85, 6-Bromo-2,3,4,9-tetrahydro-1H-carbazole-1-carboxylic acid]: the EC50 under setting [1] was greater than 1000 nM.

For the compound `COc1ccc(C2CCCc3c2[nH]c2ccc(Br)cc32)cc1` (centres unmarked) [Compound 192], the EC50 under setting [2] was less than 10 nM.

For `N#Cc1ccn(C2CCCc3c2[nH]c2ccc(Br)cc32)c1` (centres unmarked) [Compound 42, 1-(6-Bromo-2,3,4,9-tetrahydro-1H-carbazol-1-yl)-1H-pyrrole-3-carbonitrile], the EC50 under setting [1] is 40 to 200 nM.

Turning to `Cc1nnsc1C(=O)NC1CCCc2c1[nH]c1ccc(Br)cc21` (centres unmarked) [Compound 103, 4-Methyl-[1,2,3]thiadiazole-5-carboxylic acid (6-bromo-2,3,4,9-tetrahydro-1H-carbazol-1-yl)-amide], the EC50 under setting [1] was 200 to 1000 nM.

For the compound `O=C1CCCc2c1[nH]c1c(Br)cccc21` [Compound 97, 8-Bromo-2,3,4,9-tetrahydro-carbazol-1-one], the EC50 under setting [1] was greater than 1000 nM.

`Brc1ccc2c3c([nH]c2c1)C(n1cccc1)CCC3` (centres unmarked) [Compound 121, 7-Bromo-1-pyrrol-1-yl-2,3,4,9-tetrahydro-1H-carbazole]: the EC50 under setting [1] was greater than 1000 nM.

As for `FC(F)(F)Oc1ccc(NC2CCCc3c2[nH]c2ccc(Br)cc32)cc1` (centres unmarked) [Compound 19, (6-Bromo-2,3,4,9-tetrahydro-1H-carbazol-1-yl)-(4-trifluoromethoxy-phenyl)-amine], under setting [1], the EC50 was less than 10 nM.

Consider `c1ccc(CN2CCn3c4c(c5ccccc53)CCCC42)cc1` (centres unmarked) [Compound 163, 3-Benzyl2,3,3a,4,5,6-hexahydro-1H-pyrazino[3,2,1-jk]carbazole], for which the EC50 under setting [3] is greater than 1000 nM and the EC50 under setting [4] is 1790 nM.

On to `FC(F)(F)c1ccc(NC2CCCc3c2[nH]c2ccc(Cl)cc32)cc1` (centres unmarked) [Compound 137, (6-Chloro-2,3,4,9-tetrahydro-1H-carbazol-1-yl)-(4-trifluoromethyl-phenyl)-amine], for which, under setting [1], the EC50 was less than 10 nM.

Regarding `Brc1ccc2[nH]c3c(c2c1)CCCC3c1ccc(OCC2CO2)cc1` (centres unmarked) [Compound 194], the EC50 under setting [2] is less than 10 nM.

Take `O=C1c2sccc2CN1C1CCCc2c1[nH]c1ccc(Cl)cc21` (centres unmarked) [Compound 148, 5-(6-Chloro-2,3,4,9-tetrahydro-1H-carbazol-1-yl)-4,5-dihydro-thieno[2,3-c]pyrrol-6-one]: the EC50 under setting [1] is less than 10 nM.

Turning to `NC(=O)c1ccc2[nH]c3c(c2c1)CCCC3n1cccc1` (centres unmarked) [Compound 119, 8-Pyrrol-1-yl-6,7,8,9-tetrahydro-5H-carbazole-3-carboxylic acid amide], the EC50 under setting [1] is greater than 1000 nM.

Take `COC(CNC1CCCc2c1[nH]c1ccc(C)cc21)OC` (centres unmarked) [Compound 165, (2,2-Dimethoxy-ethyl)-(6-methyl-2,3,4,9-tetrahydro-1H-carbazol-1-yl)-amine]: the EC50 by setting is: under setting [3], greater than 1000 nM; under setting [4], 5200 nM.

For `S=C(Nc1ccccc1)N1CCn2c3c(c4cc(C5CCCCC5)ccc42)CCCC31` (centres unmarked) [Compound 164, 8-Cyclohexyl-1,2,3a,4,5,6-hexahydro-pyrazino[3,2,1-jk]carbazole-3-carbothioic acid phenylamide], the EC50 under setting [3] is greater than 1000 nM and the EC50 under setting [4] was 2170 nM.

`Cc1ccc2[nH]c3c(c2c1)CCCC3NC1CCCCC1` (centres unmarked) [Compound 161, Cyclohexyl-(6-methyl-2,3,4,9-tetrahydro-1H-carbazol-1-yl)-amine]: the EC50 under setting [3] is 200 to 1000 nM and the EC50 under setting [4] was determined as 670 nM.

As to `O=C(NC1CCCc2c1[nH]c1ccc(Br)cc21)c1ccsc1` (centres unmarked) [Compound 153, Thiophene-3-carboxylic acid (6-bromo-2,3,4,9-tetrahydro-1H-carbazol-1-yl)-amide], the EC50 under setting [1] lay in the range of 40 to 200 nM.
